Measurements published in paper PMC10482691, “LTP induction by structural rather than enzymatic functions of CaMKII” (Nature, 2023).
“And” between values parts separate entries of the source, which are not always exact repeats. Equal values may be shown once.

Key:
SGK(h) = SGK(h) (Homo sapiens, UniProt O00141); assay: Kinase selectivity panel (residual activity at 1 μM); format: biochemical; details: inhibitor at 1 μM; read-out: residual kinase activity in % of maximal activity
CaMKIV(h) = CaMKIV(h) (Homo sapiens, UniProt Q16566); assay: as above; format: biochemical; details: inhibitor at 1 μM; read-out: residual kinase activity in % of maximal activity
Sequence of CaMKIV(h) (Q16566 whole entry): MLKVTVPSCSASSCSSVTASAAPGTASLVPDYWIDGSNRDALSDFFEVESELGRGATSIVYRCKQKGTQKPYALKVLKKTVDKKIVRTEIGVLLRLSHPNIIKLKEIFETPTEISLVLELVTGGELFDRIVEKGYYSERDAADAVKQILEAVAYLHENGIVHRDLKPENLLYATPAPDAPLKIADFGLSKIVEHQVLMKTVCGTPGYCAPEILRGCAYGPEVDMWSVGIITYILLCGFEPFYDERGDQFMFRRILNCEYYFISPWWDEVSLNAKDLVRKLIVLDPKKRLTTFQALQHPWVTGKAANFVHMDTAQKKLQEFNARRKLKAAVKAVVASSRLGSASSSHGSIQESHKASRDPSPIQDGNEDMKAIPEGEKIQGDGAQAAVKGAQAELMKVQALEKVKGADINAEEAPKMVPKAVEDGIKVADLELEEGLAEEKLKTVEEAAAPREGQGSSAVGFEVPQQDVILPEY

[1] = target: purified CaMKIIα binding to GST–GluN2B-c S1303A (Homo sapiens, UniProt Q9UQM7); assay: CaMKII binding to immobilized GST–GluN2B-c S1303A in vitro
GSK3α(h) = GSK3α(h) (Homo sapiens, UniProt P49840); assay: Kinase selectivity panel (residual activity at 1 μM); format: biochemical; details: inhibitor at 1 μM; read-out: residual kinase activity in % of maximal activity
Sequence of GSK3α(h) (P49840 whole entry): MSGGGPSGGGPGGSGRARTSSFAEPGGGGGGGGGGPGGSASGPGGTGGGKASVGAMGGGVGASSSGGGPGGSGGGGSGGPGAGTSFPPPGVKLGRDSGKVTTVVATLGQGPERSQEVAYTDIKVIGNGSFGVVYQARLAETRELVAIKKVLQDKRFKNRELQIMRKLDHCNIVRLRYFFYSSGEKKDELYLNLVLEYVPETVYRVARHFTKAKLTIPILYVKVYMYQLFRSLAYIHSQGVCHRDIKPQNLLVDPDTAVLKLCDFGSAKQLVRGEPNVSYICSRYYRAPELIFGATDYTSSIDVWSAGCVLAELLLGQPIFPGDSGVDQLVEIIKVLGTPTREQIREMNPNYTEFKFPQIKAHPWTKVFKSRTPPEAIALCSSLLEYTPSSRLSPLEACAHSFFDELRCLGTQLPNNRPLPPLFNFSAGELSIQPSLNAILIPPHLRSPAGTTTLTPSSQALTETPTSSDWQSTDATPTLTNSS

Aurora-C(h) = Aurora-C(h) (Homo sapiens, UniProt Q9UQB9); assay: as above; format: biochemical; details: inhibitor at 1 μM; read-out: residual kinase activity in % of maximal activity
Sequence of Aurora-C(h) (Q9UQB9 whole entry): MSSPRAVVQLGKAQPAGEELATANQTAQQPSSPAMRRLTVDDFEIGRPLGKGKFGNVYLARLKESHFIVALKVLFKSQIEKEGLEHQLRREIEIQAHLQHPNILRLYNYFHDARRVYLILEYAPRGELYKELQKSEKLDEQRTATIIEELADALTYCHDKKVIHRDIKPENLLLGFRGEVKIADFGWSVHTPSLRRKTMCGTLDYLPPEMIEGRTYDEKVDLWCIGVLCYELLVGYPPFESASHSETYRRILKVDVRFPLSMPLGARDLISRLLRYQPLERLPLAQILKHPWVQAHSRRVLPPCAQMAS

AMPKα1(h) = AMPKα1(h) (Homo sapiens, UniProt Q13131); assay: as above; format: biochemical; details: inhibitor at 1 μM; read-out: residual kinase activity in % of maximal activity
Sequence of AMPKα1(h) (Q13131 whole entry): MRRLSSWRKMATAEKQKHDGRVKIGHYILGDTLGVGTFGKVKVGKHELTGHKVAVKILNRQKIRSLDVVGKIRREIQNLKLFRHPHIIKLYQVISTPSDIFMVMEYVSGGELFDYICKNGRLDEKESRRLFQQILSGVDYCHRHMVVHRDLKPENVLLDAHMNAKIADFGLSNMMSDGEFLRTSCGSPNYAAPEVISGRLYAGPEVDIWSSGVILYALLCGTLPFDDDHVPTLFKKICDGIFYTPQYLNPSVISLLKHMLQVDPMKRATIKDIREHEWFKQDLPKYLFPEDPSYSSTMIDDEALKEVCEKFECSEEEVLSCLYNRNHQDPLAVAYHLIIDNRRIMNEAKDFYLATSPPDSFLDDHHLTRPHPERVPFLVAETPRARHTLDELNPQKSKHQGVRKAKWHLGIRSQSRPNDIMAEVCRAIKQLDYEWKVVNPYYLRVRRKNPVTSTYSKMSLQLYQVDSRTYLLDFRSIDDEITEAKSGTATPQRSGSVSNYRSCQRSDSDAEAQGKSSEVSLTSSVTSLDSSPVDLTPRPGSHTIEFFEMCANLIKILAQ
Sequence of AMPKα1(h) (Q9Y478 whole entry partner): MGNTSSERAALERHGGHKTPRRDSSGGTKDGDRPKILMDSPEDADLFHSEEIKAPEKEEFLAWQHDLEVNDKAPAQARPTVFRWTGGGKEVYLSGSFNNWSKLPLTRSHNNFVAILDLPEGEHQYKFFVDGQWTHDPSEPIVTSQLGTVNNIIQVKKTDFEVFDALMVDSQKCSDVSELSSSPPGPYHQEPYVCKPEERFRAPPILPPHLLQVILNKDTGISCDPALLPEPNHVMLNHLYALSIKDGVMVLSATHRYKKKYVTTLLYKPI
Sequence of AMPKα1(h) (P54619 whole entry partner): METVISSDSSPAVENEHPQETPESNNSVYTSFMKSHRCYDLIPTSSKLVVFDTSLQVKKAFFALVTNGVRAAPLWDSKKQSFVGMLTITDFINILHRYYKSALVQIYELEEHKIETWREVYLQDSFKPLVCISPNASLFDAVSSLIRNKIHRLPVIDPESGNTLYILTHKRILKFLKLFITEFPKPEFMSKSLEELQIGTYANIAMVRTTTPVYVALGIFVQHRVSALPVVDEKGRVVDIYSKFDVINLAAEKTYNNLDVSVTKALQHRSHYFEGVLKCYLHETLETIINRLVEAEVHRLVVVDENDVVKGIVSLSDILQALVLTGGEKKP

Ret(h) = Ret(h) (Homo sapiens, UniProt P07949); assay: as above; format: biochemical; details: inhibitor at 1 μM; read-out: residual kinase activity in % of maximal activity
Sequence of Ret(h) (P07949 29-1114): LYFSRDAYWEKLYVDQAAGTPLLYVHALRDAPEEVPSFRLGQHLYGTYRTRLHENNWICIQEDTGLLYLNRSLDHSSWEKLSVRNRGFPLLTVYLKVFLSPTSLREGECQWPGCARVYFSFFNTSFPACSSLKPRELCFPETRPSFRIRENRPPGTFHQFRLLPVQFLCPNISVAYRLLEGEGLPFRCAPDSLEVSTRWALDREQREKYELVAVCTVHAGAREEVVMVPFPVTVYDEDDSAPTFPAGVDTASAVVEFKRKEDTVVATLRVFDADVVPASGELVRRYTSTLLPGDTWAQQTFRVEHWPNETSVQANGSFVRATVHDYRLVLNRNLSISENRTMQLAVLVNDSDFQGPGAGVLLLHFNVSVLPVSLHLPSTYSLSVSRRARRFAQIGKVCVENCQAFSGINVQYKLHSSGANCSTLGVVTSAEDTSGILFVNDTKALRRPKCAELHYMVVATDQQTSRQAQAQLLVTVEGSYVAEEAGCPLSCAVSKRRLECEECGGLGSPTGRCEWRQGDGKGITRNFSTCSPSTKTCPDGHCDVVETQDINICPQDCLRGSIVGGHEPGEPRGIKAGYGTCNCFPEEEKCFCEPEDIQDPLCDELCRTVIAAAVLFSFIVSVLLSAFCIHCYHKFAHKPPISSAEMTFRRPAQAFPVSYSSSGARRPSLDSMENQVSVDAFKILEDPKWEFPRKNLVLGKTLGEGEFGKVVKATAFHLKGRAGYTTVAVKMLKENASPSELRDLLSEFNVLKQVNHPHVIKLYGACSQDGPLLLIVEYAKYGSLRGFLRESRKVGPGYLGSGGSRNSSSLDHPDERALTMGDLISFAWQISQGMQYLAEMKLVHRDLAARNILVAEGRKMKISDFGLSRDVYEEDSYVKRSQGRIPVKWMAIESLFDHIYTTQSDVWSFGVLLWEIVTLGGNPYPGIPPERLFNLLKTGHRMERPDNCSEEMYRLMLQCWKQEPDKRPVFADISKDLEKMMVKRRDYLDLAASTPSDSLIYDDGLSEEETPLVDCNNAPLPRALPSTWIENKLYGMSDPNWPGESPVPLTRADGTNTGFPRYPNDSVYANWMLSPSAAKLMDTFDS

[2] = test system: CA1 LTP in CaMKII F89G-expressing slices; assay: LTP field recordings in slices of CaMKIIα KO mice injected with AAV-mScarlet-CaMKII-F89G; format: cell-based, mouse; details: for LTP time course, normalized response per slice (sheet 5d): individual slices, NM-PP1 vs Vehicle, in %
Description: Stereotactic injections were performed on P24 CaMKIIα KO mice. Animals were anesthetized with an intraperitoneal injection of 2,2,2-Tribromoethanol (250 mg kg^−1) and then head fixed to a stereotactic frame (David Kopf Instruments). AAVs (0.2–0.5 µl) were injected into intermediate CA1 at a rate of […] using a syringe pump (World Precision Instruments). Coordinates (in millimetres) were anterior–posterior: −3.17; mediolateral: ±3.45 (relative to Bregma); and dorsoventral: −2.5 (relative to pia). To confirm specificity of the injection site following LTP recordings, slices were fixed in 4% paraformaldehyde; then, they were coverslipped and imaged on an Olympus slide scanning microscope.
WT and mutant mouse hippocampal slices were prepared using P56–P70 mice. Isoflurane-anesthetized mice were rapidly decapitated, and the brain was dissected in an ice-cold high-sucrose solution containing 220 mM sucrose, 12 mM MgSO4, 10 mM glucose, 0.2 mM CaCl2, 0.5 mM KCl, 0.65 mM NaH2PO4, 13 mM NaHCO3 and 1.8 mM ascorbate. Transverse hippocampal slices (400 μm) were made using a tissue chopper (McIlwain) and transferred into 32 °C ACSF containing 124 mM NaCl, 3.5 mM KCl, 1.3 mM NaH2PO4, 26 mM NaHCO3, 10 mM glucose, 2 mM CaCl2, 1 mM MgSO4 and 1.8 mM ascorbate. All slices were recovered in 95% O2/5% CO2 for at least 1.5 h before experimentation.
For electrophysiological slice recording experiments, a glass micropipette (typical resistance of 0.4–0.8 megaohm when filled with ACSF) was used to record fEPSPs from the CA1 dendritic layer in response to stimulation of the Schaffer collaterals using a tungsten bipolar electrode. Slices were continually perfused with 30.5 °C ± 0.5 °C ACSF at a rate of 2.5 ± 0.5 ml min^−1 during recordings. Stimuli were delivered every 20 s, and three responses (1 min) were averaged for analysis. Data were analysed using WinLTP software with slope calculated as the initial rise from 10 to 60% of the response peak. Input–output curves were generated by increasing the stimulus intensity at a constant interval until a maximum response or population spike was noted to determine stimulation that elicits 50% of maximum slope. […] A stable baseline was acquired for a minimum of 20 min at 50% maximum slope before high-frequency stimulation (HFS; 2 × 100 Hz, 10 s interval) was applied. Responses were recorded for 40 or 60 min after HFS. Change in slope was calculated as a ratio of the average slope of the 20 min baseline (before HFS). Bar graphs of the percentage of fEPSP slope were calculated by averaging the last 10 min time points post-HFS and normalized to baseline.

[3] = test system: GFP–CaMKII F89G in rat hippocampal neurons; assay: cLTP-induced CaMKII synaptic enrichment in dissociated hippocampal cultures (GFP–CaMKII F89G); format: cell-based; details: for CaMKII synaptic enrichment: GFP-CaMKII F89G, individual neurons, sheet 4e
[4] = test system: GFP–paCaMKII F89G in hippocampal neurons; assay: paCaMKII F89G photoactivation: synaptic enrichment in hippocampal neurons; format: cell-based
Description: Neurons were wrapped in aluminium foil immediately following transfection and only exposed to red light in imaging. One image was then taken of each neuron to serve as a pre-photoactivation baseline. Immediately following this baseline image, paCaMKII was globally photoactivated with a 405 nm laser pulse (100 ms exposure, 75% laser power) once every 10 s for a total of 60 s. Neurons were then imaged 15 min after stimulation and assessed for CaMKII synaptic enrichment and dendritic spine growth.
Neuronal cultures were transfected on DIV 15–18 and imaged 24–48 h later. […] Two-dimensional maximum-intensity projection images were then generated and analysed using a custom-build programme in ImageJ. The programme utilizes combinatorial thresholding to mask regions of the cell that contain high-intensity puncta of postsynaptic density protein 95 (PSD95; a marker of the post-synaptic side of excitatory synapses in dendritic spines) and regions of the dendritic shaft that contain no fluorescence intensity of PSD95. As a measure of synaptic enrichment, the ratio of mean CaMKII fluorescence intensity of the PSD95 mask to the mean CaMKII fluorescence intensity in the dendritic shaft mask is measured. Spine growth was assessed by measuring the changes in mCherry cell fill fluorescence intensity within dendritic spine divided by the initial fluorescence intensity (F/F0).

Sequence of SGK(h) (O00141 whole entry): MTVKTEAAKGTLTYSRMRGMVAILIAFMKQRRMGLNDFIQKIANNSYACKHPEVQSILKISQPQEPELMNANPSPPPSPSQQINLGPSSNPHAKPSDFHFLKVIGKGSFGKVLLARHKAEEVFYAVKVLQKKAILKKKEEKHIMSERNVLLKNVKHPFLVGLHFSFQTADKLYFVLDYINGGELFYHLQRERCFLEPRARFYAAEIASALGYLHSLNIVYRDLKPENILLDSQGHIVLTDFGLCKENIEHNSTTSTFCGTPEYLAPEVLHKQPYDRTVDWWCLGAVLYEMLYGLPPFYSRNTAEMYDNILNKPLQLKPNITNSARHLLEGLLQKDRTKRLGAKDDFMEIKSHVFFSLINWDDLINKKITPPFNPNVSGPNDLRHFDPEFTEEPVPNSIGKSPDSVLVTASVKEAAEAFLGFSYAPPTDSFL

NCCNc1cccc(-c2ccnc3[nH]c4ccccc4c23)c1 [AS283]
remaining activity at 1 µM (SGK(h)): 86% | remaining activity at 1 µM (CaMKIV(h)): 90% | bound CaMKIIα (immunoblot, relative) ([1]; Ca2+/CaM, 10 μM AS283, no nucleotide, GST–GluN2B-c S1303A): 4.303 and 5.73 and 6.682 | enhancing effect on CaMKII binding compared with ATP ([1]; GluN2B S1303A mutant): indistinguishable | remaining activity at 1 µM (GSK3α(h)): 82% | remaining activity at 1 µM (Aurora-C(h)): 63% | remaining activity at 1 µM (AMPKα1(h)): 70% | remaining activity at 1 µM (Ret(h)): 44%

CC(C)(C)n1nc(Cc2cccc3ccccc23)c2c(N)ncnc21 [NM-PP1]
effect on LTP induction in CaMKII F89G slices ([2]; NM-PP1 10 μM): enabled | LTP time course, normalized response per slice (sheet 5d) ([2]; Time (min) 0): 103.829 and 96.437 and 102.744 and 120.959 and 123.914 and 192.297 and 144.344 and 104.217 and 103.642 and 100.747 and 103.258 and 105.141 and 101.674 and 96.3411 and 105.44 | LTP time course, normalized response per slice (sheet 5d) ([2]; Time (min) 2.33333): 150.168 and 204.285 and 322.186 and 119.321 and 114.899 and 190.522 and 128.721 and 184.151 and 177.879 and 161.407 and 188.756 and 121.03 and 118.847 and 177.028 and 124.93 | LTP time course, normalized response per slice (sheet 5d) ([2]; Time (min) 4.33333): 139.017 and 204.469 and 290.028 and 113.213 and 106.868 and 195.712 and 130.419 and 192.043 and 166.691 and 143.621 and 171.089 and 117.041 and 117.676 and 154.052 and 148.947 | LTP time course, normalized response per slice (sheet 5d) ([2]; Time (min) 6.33333): 131.831 and 176.494 and 247.758 and 112.468 and 113.588 and 169.626 and 124.646 and 168.164 and 143.426 and 132.43 | LTP time course, normalized response per slice (sheet 5d) ([2]; Time (min) -2): 105.316 and 104.903 and 86.159 and 100.7 and 102.934 and 111.991 and 100.871 and 90.8613 and 108.408 and 99.877 and 100.511 and 99.326 and 97.9659 and 101.831 and 107.897 | LTP time course, normalized response per slice (sheet 5d) ([2]; Time (min) -4): 102.838 and 104.535 and 87.5747 and 99.3595 and 101.459 and 104.616 and 103.249 and 75.684 and 101.138 and 101.174 and 99.4129 and 111.767 and 97.478 and 110.855 and 98.9622 | LTP time course, normalized response per slice (sheet 5d) ([2]; Time (min) -6): 101.103 and 99.9338 and 95.867 and 99.0615 and 102.77 and 102.977 and 108.004 and 99.3605 and 103.117 and 97.9481 and 103.441 and 114.539 and 103.918 and 97.8041 and 96.1755 | effect on impaired LTP-induced synaptic CaMKII localization ([3]; F89G mutant, 10 μM NM-PP1): rescued | CaMKII synaptic enrichment ([3]; NMPP1, before cLTP): 1.457 and 2.177 and 1.336 and 1.561 and 0.9177 and 1.552 | CaMKII synaptic enrichment ([3]; after cLTP in NMPP1): 2.238 and 2.292 and 2.101 and 2.038 and 1.685 and 2.186 | CaMKII movement after photoactivation of paCaMKII F89G ([4]; NM-PP1 10 μM): enabled similar movement | synaptic enrichment after photoactivation (sheet 6e) ([4]; paCaMKII F89G + NM-PP1, individual neurons): 1.231 and 1.446 and 1.136 and 1.385 and 1.127 and 1.67 and 1.6203 and 1.284 and 0.7763 and 1.224 and 1.168 and 1.296 and 1.013 and 0.919 and 1.131 and 1.135 and 1.776
